In PMC3466212, “Novel AChE Inhibitors for Sustainable Insecticide Resistance Management” (PLoS ONE, 2012):
Like-named read-outs stand apart in the source and are kept apart here.

Key:
[1] = system: C. pipiens Slab strain larvae; assay: Larval bioassay, Slab strain (OP-susceptible); conditions: for Mortality at 300 µM, Slab: fourth-instar larvae, 24 hours exposure
Source text: Three C. pipiens strains were used: the susceptible reference Slab strain, homozygous for ace-1 ^S [39], the resistant reference SR strain, carrying the genetical background of Slab but homozygous for the G119S mutation, allele ace-1 ^R [21] and the Ducos strain, carrying the genetical background of Slab but homozygous for an ace-1 duplication, with one ace-1^S and ace-1^R copy in tandem. Culex pipiens heterozygous larvae (Slab×SR) were obtained by crossing Slab males and SR females. Two A. gambiae reference strains (S molecular form) were used: the susceptible strain Kisumu, homozygous for ace-1 ^S, collected in Kenya in 1953 and maintained since then under laboratory conditions and the resistant Acerkis strain, carrying the genetical background of Kisumu but homozygous for an ace-1^R allele from a population collected in Bobo-Dioulasso, Burkina Faso [41].
Insecticidal activity was determined by performing bioassays on fourth-instar larvae as described in [42]. Each compound was dissolved in ethanol. Propoxur (CX) and chlorpyrifos (OP) were used as references. For each compound, we first tested mortality after a 24-hour exposure at 300 µM. […] Mortality data were analyzed by the log-probit program. This program takes into account natural mortality and provides lethal doses (LD) and slopes for each mortality line; it also computes resistance ratios (RR) for each LD, with 95% confidence intervals.

[2] = target: WT AChE1 (Culex pipiens, UniProt Q86GC8); assay: AChE assay (Ellman), dose-response on recombinant WT AChE1; format: biochemical; set-up: made in house; host or cells: Drosophila S2 cells
Description: (§1) Production of C. pipiens WT and mutated AChE1s in Drosophila S2 cells was already described. The chemical library (ChemBridge, 3,000 compounds) screening was performed in duplicate on G119S recombinant AChE1. Chemicals were made soluble in ethanol or dimethylsulphoxide (DMSO), and then diluted at 300 µM in ethanol for storage. Compounds (30 µM final concentration) were incubated for 15 min at room temperature with 100 µl of G119S recombinant AChE1 then 100 µl of substrate (acetylthiocholine, 1.6 mM, Sigma-Aldrich) was added and the residual activity was quantified by measuring the optical density at 412 nm, as described by Ellman et al.. PTF analogs were analyzed in dose-response experiments (10-fold serial dilutions from 3 mM to 30 nM), using recombinant WT and G119S AChE1 or mosquito head extracts (heads cut from frozen mosquitoes, homogenized in 400 µl PB containing 1% Triton X-100 and cleared by centrifugation at 9,000×g for 3 min). Depending on compound availability, two to five replicates were performed with distinct batches of enzyme. […] IC50 was estimated by nonlinear least square regression. IC50 was also measured on AChE1 from susceptible and resistant mosquito larvae extracts.

[3] = system: C. pipiens SR strain larvae; assay: Larval bioassay, SR strain (OP-resistant); conditions: for Mortality at 300 µM, SR: fourth-instar larvae, 24 hours exposure
Source text: Three C. pipiens strains were used: the susceptible reference Slab strain, homozygous for ace-1 ^S [39], the resistant reference SR strain, carrying the genetical background of Slab but homozygous for the G119S mutation, allele ace-1 ^R [21] and the Ducos strain, carrying the genetical background of Slab but homozygous for an ace-1 duplication, with one ace-1^S and ace-1^R copy in tandem. Culex pipiens heterozygous larvae (Slab×SR) were obtained by crossing Slab males and SR females.
Insecticidal activity was determined by performing bioassays on fourth-instar larvae as described in [42]. Each compound was dissolved in ethanol. Propoxur (CX) and chlorpyrifos (OP) were used as references. For each compound, we first tested mortality after a 24-hour exposure at 300 µM. […] Mortality data were analyzed by the log-probit program.

[4] = target: T1, G119S AChE1 (Culex pipiens, UniProt Q86GC8, G247S); assay: biochemical; format: biochemical
T1 construct: made in house; host or cells: Drosophila S2 cells
Description: as §1, with “Compounds (30 µM final concentration) were incubated for 15 min at room temperature with 100 µl of G119S recombinant AChE1 then 100 µl of substrate (acetylthiocholine, 1.6 mM, Sigma-Aldrich) was added and the residual activity was quantified by measuring the optical density at 412 nm, as described by Ellman et al..” left out

[5] = recombinant wild-type C. pipiens AChE1, 15 min incubation, acetylthiocholine, read-out: IC50 WT
[6] = recombinant OP-insensitive G119S C. pipiens AChE1, 15 min incubation, acetylthiocholine, read-out: IC50 G119S

Row | SMILES | Mortality at 300 µM, Slab [1] | IC50 [2, 5] | Mortality at 300 µM, SR [3] | IC50 [4, 6] | mortality at 300 µM ([1]; Culex pipiens, 24 h, read-out: Mortality at 300 µM, Slab) | IC50 [2] | mortality at 300 µM ([3]; Culex pipiens, 24 h, read-out: Mortality at 300 µM, SR) | IC50 [4] | inhibition in primary screen (hydrolysis of acetylthiocholine) ([4]; 30 µM final concentration, duplicate, G119S recombinant AChE1)
1 | Cc1ccc(C=C2C(=O)NC(=S)N(c3ccc(F)cc3)C2=O)o1 [PTF-33] | 16% | 490 µM | 77% | 22 µM | – | – | – | – | –
2 | O=C1NC(=O)N(c2ccccc2)C(=O)C1=Cc1ccc(-c2cccc(C(=O)O)c2)o1 [PTF-58] | 0% | 6.7 µM | 0% | 9.3 µM | – | – | – | – | –
3 | COc1ccccc1N1C(=O)NC(=O)C(=Cc2ccc(C)o2)C1=O [PTF-11] | 0% | 1.3 µM | 0% | 1 µM | – | – | – | – | –
4 | Cc1ccc(C=C2C(=O)NC(=O)N(c3cccc(Br)c3)C2=O)o1 [PTF-22] | 68% | 1.5 µM | 97% | 1.9 µM | – | – | – | – | –
5 | Cc1ccc(C=C2C(=O)NC(=S)N(c3ccc(Cl)cc3)C2=O)o1 [PTF-35] | 5% | 8.7 µM | 49% | 8.7 µM | – | – | – | – | –
6 | O=C1NC(=O)N(c2ccccc2)C(=O)C1=Cc1ccc(N2CCOCC2)o1 [PTF-62] | 0% | 197 µM | 0% | 345 µM | – | – | – | – | –
7 | COc1ccc(N2C(=O)C(=Cc3ccc(C)o3)C(=O)NC2=S)c(OC)c1 [PTF-30] | 25% | 2.8 µM | 25% | 1.3 µM | – | – | – | – | –
8 | Cc1ccc(C=C2C(=O)NC(=O)N(C3CCCCC3)C2=O)o1 [PTF-2] | 12% | 12.6 µM | 53% | 5.5 µM | – | – | – | – | –
9 | Cc1ccc(C=C2C(=O)NC(=O)N(c3ccc(C(C)C)cc3)C2=O)o1 [PTF-9] | 19% | 132 µM | 39% | 21.5 µM | – | – | – | – | –
10 | CCc1ccc(N2C(=O)NC(=O)C(=Cc3ccc(C)o3)C2=O)cc1 [PTF-8] | 60% | 312 µM | 100% | 19 µM | – | – | – | – | –
11 | Cc1ccc(C=C2C(=O)NC(=O)N(c3ccc(C(=O)O)cc3)C2=O)o1 [PTF-15] | 0% | 9 µM | 0% | 12.9 µM | – | – | – | – | –
12 | Cc1ccc(C=C2C(=O)NC(=S)N(c3ccc(C(=O)O)cc3)C2=O)o1 [PTF-31] | 20% | 0.5 µM | 20% | 0.2 µM | – | – | – | – | –
13 | O=C1NC(=O)N(c2ccccc2)C(=O)C1=Cc1ccc(-c2cccc(C(=O)O)c2)s1 [PTF-69] | 0% | 43.9 µM | 0% | 4.6 µM | – | – | – | – | –
14 | O=C1NC(=O)N(c2ccccc2)C(=O)C1=Cc1ccc(Sc2ccccc2)o1 [PTF-60] | 50% | 7.7 µM | 50% | 1.1 µM | – | – | – | – | –
15 | Cc1ccc(C=C2C(=O)NC(=O)N(CCc3ccc(F)cc3)C2=O)o1 [PTF-19] | 0% | 3.3 µM | 0% | 3.7 µM | – | – | – | – | –
16 | Cc1ccc(C=C2C(=O)NC(=O)N(c3cccc(Cl)c3Cl)C2=O)o1 [PTF-21] | 0% | 5 µM | 0% | 4.8 µM | – | – | – | – | –

Row | SMILES | Mortality at 300 µM, Slab [1] | IC50 [2, 5] | Mortality at 300 µM, SR [3] | IC50 [4, 6] | mortality at 300 µM ([1]; Culex pipiens, 24 h, read-out: Mortality at 300 µM, Slab) | IC50 [2] | mortality at 300 µM ([3]; Culex pipiens, 24 h, read-out: Mortality at 300 µM, SR) | IC50 [4] | inhibition in primary screen (hydrolysis of acetylthiocholine) ([4]; 30 µM final concentration, duplicate, G119S recombinant AChE1)
17 | CN1C(=O)C(=Cc2ccc(-c3cccc(C(=O)O)c3)o2)C(=O)N(C)C1=O [PTF-44] | 0% | 0.6 µM | 0% | 0.6 µM | – | – | – | – | –
18 | COP(=O)(OC)OC=C(Cl)Cl [Dichlorvos, reference compound] | – | – | – | – | 100% | 0.45 µM | 100% | 2 µM | –
19 | CN1C(=O)C(=Cc2ccc([N+](=O)[O-])o2)C(=O)N(C)C1=O [PTF-40] | 0% | 83 µM | 0% | 55 µM | – | – | – | – | –
20 | Cc1ccc(C=C2C(=O)NC(=S)N(CCc3ccc(F)cc3)C2=O)o1 [PTF-34] | 0% | 24 µM | 0% | 38 µM | – | – | – | – | –
21 | Cc1ccc(C=C2C(=O)NC(=S)N(c3cccc(Cl)c3)C2=O)o1 [PTF-36] | 30% | 11.8 µM | 40% | 8 µM | – | – | – | – | –
22 | CN1C(=O)C(=Cc2ccc(-c3ccc(S(N)(=O)=O)cc3)o2)C(=O)N(C)C1=O [PTF-46] | 0% | 1.7 µM | 0% | 5.2 µM | – | – | – | – | –
23 | O=C1NC(=O)N(c2ccccc2)C(=O)C1=Cc1ccc(Br)o1 [PTF-55] | 0% | 17 µM | 0% | 32.6 µM | – | – | – | – | –
24 | Cc1ccc(C=C2C(=O)NC(=O)N(c3ccccc3F)C2=O)o1 [PTF-18] | 0% | 5.3 µM | 0% | 1.8 µM | – | – | – | – | –
25 | Cc1ccc(N2C(=O)C(=Cc3ccc(C)o3)C(=O)NC2=S)cc1 [PTF-24] | 0% | 1.3 µM | 0% | 1.9 µM | – | – | – | – | 80–87%
26 | N=C1NC(=O)C(=Cc2ccco2)C(=O)N1c1ccccc1 [PTF-64] | 0% | 56 µM | 0% | 49.5 µM | – | – | – | – | –
27 | O=C1NC(=O)N(c2ccccc2)C(=O)C1=Cc1ccc(-c2ccc(C(=O)O)cc2)o1 [PTF-57] | 0% | 11.3 µM | 0% | 5.4 µM | – | – | – | – | –
28 | COc1cccc(N2C(=O)NC(=O)C(=Cc3ccc(C)o3)C2=O)c1 [PTF-12] | 46% | 54 µM | 88% | 6 µM | – | – | – | – | –
29 | Cc1ccc(C=C2C(=O)NC(=O)N(c3ccccc3C)C2=O)o1 [PTF-5] | 0% | 1.4 µM | 0% | 1.1 µM | – | – | – | – | –
30 | CC(=O)c1ccc(-c2ccc(C=C3C(=O)N(C)C(=O)N(C)C3=O)o2)cc1 [PTF-45] | 0% | 3.4 µM | 0% | 1.1 µM | – | – | – | – | –
31 | CCOC(=O)c1ccc(-c2ccc(C=C3C(=O)NC(=O)N(c4ccccc4)C3=O)o2)cc1 [PTF-56] | 0% | 4.9 µM | 0% | 1.9 µM | – | – | – | – | –
32 | Cc1ccc(C=C2C(=O)NC(=O)N(c3ccc(F)cc3)C2=O)o1 [PTF-17] | 15% | 5 µM | 90% | 8 µM | – | – | – | – | –
